{
  "source": "patent US11753484B2",
  "about": "“Cellulose ether-lactam hybrid polymers, compositions, and methods for preparing and using the hybrid polymers” (HERCULES LLC, priority 2017, dated 2023)",
  "key": {"[1]": {"assay": "Glass transition temperature (Tg) by differential scanning calorimetry", "type": "physicochemical", "settings": "regular DSC, heat-cool-heat, 10° C./minute, second heating cycle", "procedure": "Differential Scanning Calorimetry (DSC): Glass transition temperature Tg is an important indicator of API physical stability against crystallization through storage. The higher Tg, the better physical stability. Generally speaking, if the Tg is equal to or higher than storage temperature+50° C., then the product is expected to be very stable throughout the entire shelf life. If the Tg is between storage temperature and temperature+50° C., then some stability issue may occur.\nThe glass transition temperature (Tg) measurement were conducted using TA instrument, Q2000. For pure ingredients, regular DSC set up was used. A heat-cool-heat cycle with a heating rate of 10° C./minutes was implemented. The first heating cycle is used to standardize sample by erasing its thermal history, and the Tg from second heating cycle is reported. For SDD, modulated DSC set up was used. An average heating rate of 2° C./minute with modulation amplitude of 1° per 40 seconds was implemented.\nThe measurement results are summarized below in the Table. […] Stable SDDs are expected from this indicator."}, "[2]": {"settings": "description of the API; cited from earlier work"}, "[3]": {"assay": "Dissolution of Efavirenz spray dried dispersions in pH 6.8 phosphate buffer media (Pion μDiss Profiler)", "type": "physicochemical", "procedure": "(§1) The active pharmaceutical ingredient (API) and polymer were mixed in a 30:70 ratio and spray-dried into a spray dried dispersion (SDD). The following are the solution preparation and spray drying process information. Solution preparation: Efavirenz and polymers were dissolved in a 2:1 (w/w) mixture of acetone:methanol solution at a total 3% solid loading. Dissolution of all components was visually confirmed before spray drying. Spray drying: Spray drying was performed on a GEA-Niro SD Micro spray dryer. All dispersions were spray dried targeting an inlet gas temperature of 85° C., 25 kg/hour process gas flow, 0.5 barr atomization gas pressure, 1.5 kg/hour atomizing gas flow, and an adjustable liquid feed rate targeting an outlet gas temperature of 55° C. The feed solution was held at ambient conditions. Dissolution: The dissolution tests were conducted using Pion μDiss Profiler with in situ Fiber Optic UV-Vis Monitoring. 66.7 mg spray dried dispersion (SDD) was weighed and tested in the dissolution, with 30% drug loading level (20 mg API). The controlled reference used in dissolution testing is pure API Efavirenz (20 mg). The quantity of dissolution media is 20 mL. The API concentrations were monitored for 2 hours. For each sample, triplicate measurements were taken and the average results were reported. Fasted Simulated Intestine Fluid (FaSSIF), as well as pH 6.8 phosphate buffer, were used to perform the dissolution. FaSSIF is virtually the same as the small intestinal juices present when one hasn't eaten any food, and contain bile salts and phospholipids, physiologically relevant surfactants which are missing from typical dissolution media. The use of FaSSIF media can help to better correlate the in vitro dissolution property and the in vivo response (IVIVC), so as to further understand the API performance in actual human body. Meanwhile, pH 6.8 phosphate buffer medium was also used in the study, as it was more typically used in formulation development/screening process, pH 6.8 phosphate buffer medium is not as indicated as FaSSIF medium in terms of establishing the IVIVC. […]"}, "[4]": {"settings": "cited from earlier work"}, "[5]": {"settings": "BCS-2 type drug; cited from earlier work"}, "[6]": {"assay": "Dissolution of Efavirenz spray dried dispersions in FaSSIF media (Pion μDiss Profiler)", "type": "physicochemical", "procedure": "as §1"}, "[7]": {"settings": "20 mg API in 20 mL, 30% drug load SDD (API:polymer 30:70), 2 hours, mean of triplicate"}, "[8]": {"settings": "Efavirenz concentration at 120 min, SDD 30:70"}},
  "data": [
    {"molecule": "O=C1Nc2ccc(Cl)cc2[C@@](C#CC2CC2)(C(F)(F)F)O1", "note": "[Efavirenz]", "values": [
      {"measurement": "Tg, Pure ingredient", "setting": "[1]", "result": 34.9, "unit": "°C"},
      {"measurement": "glass transition temperature", "setting": "[2]", "result": "around 35 °C"},
      {"measurement": "AUC", "setting": "[3]; [7]", "result": 960.92, "unit": "µg·min/mL"},
      {"measurement": "relAUC", "setting": "[3]; AUC of SDD vs AUC of neat API", "result": 1.0},
      {"measurement": "C120", "setting": "[3]; [8]", "result": 9.924, "unit": "µg/mL"},
      {"measurement": "partition coefficient in an octanol-water system (logP)", "setting": "[4]", "result": 4.7},
      {"measurement": "aqueous solubility", "setting": "[5]", "result": "poor"},
      {"measurement": "AUC", "setting": "[6]; [7]", "result": 18702.91, "unit": "µg·min/mL"},
      {"measurement": "relAUC", "setting": "[6]; AUC of SDD vs AUC of neat API", "result": 1.0},
      {"measurement": "C120", "setting": "[6]; [8]", "result": 166.7892, "unit": "µg/mL"}
    ]}
  ]
}
